Measured values taken from patent publication US10227344B2, “CK2 inhibitors, compositions and methods thereof” (Polaris Pharmaceuticals, Inc., priority 2016, dated 2019).
pKi: −log10 of the molar value. Counter-ions that a name gives are not always drawn.

Biological target: purified CK2α enzyme (Homo sapiens, UniProt P68400)
Assay: CK2 Protein Kinase Inhibition Assay (coupled PK/LDH assay)
Format: biochemical
Settings: CK2 enzyme 25 nM, 100 μM ATP, 37° C., Morrison equation
Method: A coupled PK (pyruvate kinase)/LDH (lactate dehydrogenase) assay was used to measure compounds' ability to inhibit purified CK2α enzyme.
The ADP product of kinase CK2a is the cofactor for PK. Phospho(enol)pyruvate (PEP) PEP is metabolized by pyruvate kinase to yield pyruvate, which is the substrate for LDH.
Serially diluted compounds were pre-incubated for 10 min at 37° C. with and 1.5 mM […] peptide substrate, 6 U/ml PK and 10 U/ml LDH (purchased from Sigma-Aldrich), 100 μM ATP, 1.2 mM NADH, 4 mM PEP in the reaction buffer (50 mM Tris (pH 8.25), 0.1 M NaCl, 10 mM magnesium acetate). The reaction was initiated by the addition of an equal volume of purified CK2 enzyme (final concentration 25 nM) diluted in the reaction buffer. Absorbance at 340 nm was measured overtime (for 30 min) at 37° C.; as NADH was converted to NAD+ the absorbance decreases. Absorbance decrease rate (per min) was plotted against the compound concentration and Ki is determined by GraphPad Prism using Morrison equation. All data points were performed in triplicate and each compound was tested in at least two separate experiments.
To this end, K, values of less than 2.5 nM are labelled as “+++”, from 2.5 nM to 10 nM are labelled as “++”, and greater than 10 nM are labelled as “+”.

purified CK2α enzyme, sequence (P68400 whole entry): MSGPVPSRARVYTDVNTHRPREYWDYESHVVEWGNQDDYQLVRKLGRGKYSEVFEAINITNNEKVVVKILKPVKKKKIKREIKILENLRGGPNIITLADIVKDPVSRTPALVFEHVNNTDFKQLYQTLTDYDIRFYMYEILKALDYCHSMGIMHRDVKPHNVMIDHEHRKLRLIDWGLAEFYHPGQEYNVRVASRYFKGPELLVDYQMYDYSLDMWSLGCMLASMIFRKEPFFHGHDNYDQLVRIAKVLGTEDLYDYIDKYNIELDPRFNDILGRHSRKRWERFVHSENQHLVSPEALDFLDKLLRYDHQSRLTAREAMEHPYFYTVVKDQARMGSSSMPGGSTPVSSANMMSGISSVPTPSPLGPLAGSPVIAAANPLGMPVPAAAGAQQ

SMILES	pKi
C[S+]([O-])Cc1cc(Nc2cc(NC3CC3)n3ncc(C#N)c3n2)ccc1Cl (racemic) [Example 1, (±)-5-((4-Chloro-3-((methylsulfinyl)methyl)phenyl)amino)-7-(cyclopropylamino)pyrazolo[1,5-a]pyrimidine-3-carbonitrile]	> 8.60
C[S+]([O-])Cc1cc(Nc2cc(NC3CC3)n3ncc(C#N)c3n2)ccc1F (racemic) [Example 5, (±)-7-(Cyclopropylamino)-5-((4-fluoro-3-((methylsulfinyl)methyl)phenyl)amino)pyrazolo[1,5-a]pyrimidine-3-carbonitrile]	8.00 to 8.60
C[S+]([O-])Cc1cc(Nc2cc(NC3CC3)n3ncc(C#N)c3n2)ccc1C#N (racemic) [Example 6, (±)-5-((4-Cyano-3-((methylsulfinyl)methyl)phenyl)amino)-7-(cyclopropylamino)pyrazolo[1,5-a]pyrimidine-3-carbonitrile]	8.00 to 8.60
CN(CCN)c1ccc(Nc2cc(NC3CC3)n3ncc(C#N)c3n2)cc1C[S+](C)[O-] (racemic) [Example 7, (±)-5-((4-((2-Aminoethyl)(methyl)amino)-3-((methylsulfinyl)methyl)phenyl)amino)-7-(cyclopropylamino)pyrazolo[1,5-a]pyrimidine-3-carbonitrile mono trifluoroacetic acid salt]	> 8.60
C[S+]([O-])Cc1cc(Nc2cc(NC3CC3)n3ncc(C#N)c3n2)ccc1CCN (racemic) [Example 8, (±)-5-((4-(2-Aminoethyl)-3-((methylsulfinyl)methyl)phenyl)amino)-7-(cyclopropylamino)pyrazolo[1,5-a]pyrimidine-3-carbonitrile mono trifluoroacetic acid salt]	> 8.60
CS(=N)(=O)Cc1cc(Nc2cc(NC3CC3)n3ncc(C#N)c3n2)ccc1Cl (racemic) [Example 12, (±)-5-((4-Chloro-3-((S-methylsulfonimidoyl)methyl)phenyl)amino)-7-(cyclopropylamino)pyrazolo[1,5-a]pyrimidine-3-carbonitrile]	8.00 to 8.60
C[S+]([O-])Cc1cc(Nc2cc(NC3CC3)n3ncc(C#N)c3n2)ccc1C1CC1 (racemic) [Example 13, (±)-5-((4-Cyclopropyl-3-((methylsulfinyl)methyl)phenyl)amino)-7-(cyclopropylamino)pyrazolo[1,5-a]pyrimidine-3-carbonitrile]	> 8.60
C[S+]([O-])Cc1cc(Nc2cc(NC3CC3)n3ncc(C#N)c3n2)ccc1N1CCNCC1 (racemic) [Example 14, (±)-7-(Cyclopropylamino)-5-((3-((methylsulfinyl)methyl)-4-(piperazin-1-yl)phenyl)amino)pyrazolo[1,5-a]pyrimidine-3-carbonitrile mono trifluoroacetic acid salt]	8.00 to 8.60
C[S+]([O-])Cc1cc(Nc2cc(NC3CC3)n3ncc(C#N)c3n2)ccc1CN (racemic) [Example 15, (±)-5-((4-(Aminomethyl)-3-((methylsulfinyl)methyl)phenyl)amino)-7-(cyclopropylamino)pyrazolo[1,5-a]pyrimidine-3-carbonitrile mono trifluoroacetic acid salt]	8.00 to 8.60
CN(CC1CC1)c1ccc(Nc2cc(NC3CC3)n3ncc(C#N)c3n2)cc1C[S+](C)[O-] (racemic) [Example 16, (±)-7-(Cyclopropylamino)-5-((4-((cyclopropylmethyl)(methyl)amino)-3-((methylsulfinyl)methyl)phenyl)amino)pyrazolo[1,5-a]pyrimidine-3-carbonitrile]	> 8.60
CNCCN(C)c1ccc(Nc2cc(NC3CC3)n3ncc(C#N)c3n2)cc1C[S+](C)[O-] (racemic) [Example 21, (±)-7-(Cyclopropylamino)-5-((4-(methyl(2-(methylamino)ethyl)amino)-3-((methylsulfinyl)methyl)phenyl)amino)pyrazolo[1,5-a]pyrimidine-3-carbonitrile mono trifluoroacetic acid salt]	> 8.60
C[S+]([O-])Cc1cc(Nc2cc(NC3CC3)n3ncc(C#N)c3n2)ccc1N1CC(O)C1 (racemic) [Example 27, (±)-7-(cyclopropylamino)-5-((4-(3-hydroxyazetidin-1-yl)-3-((methylsulfinyl)methyl)phenyl)amino)pyrazolo[1,5-a]pyrimidine-3-carbonitrile]	> 8.60
C[S+]([O-])Cc1cc(Nc2cc(NC3CC3)n3ncc(C#N)c3n2)ccc1OCC1(N)CC1 (racemic) [Example 28, (±)-5-((4-((1-aminocyclopropyl)methoxy)-3-((methylsulfinyl)methyl)phenyl)amino)-7-(cyclopropylamino)pyrazolo[1,5-a]pyrimidine-3-carbonitrile mono trifluoroacetic acid salt]	8.00 to 8.60
C[S+]([O-])Cc1cc(Nc2cc(NC3CC3)n3ncc(C#N)c3n2)ccc1OCC(C)(C)N (racemic) [Example 30, (±)-5-((4-(2-amino-2-methylpropoxy)-3-((methylsulfinyl)methyl)phenyl)amino)-7-(cyclopropylamino)pyrazolo[1,5-a]pyrimidine-3-carbonitrile mono trifluoroacetic acid salt]	8.00 to 8.60
C[S+]([O-])Cc1cc(Nc2cc(NC3CC3)n3ncc(C#N)c3n2)ccc1-c1cn[nH]c1 (racemic) [Example 35, (±)-7-(Cyclopropylamino)-5-((3-((methylsulfinyl)methyl)-4-(1H-pyrazol-4-yl)phenyl)amino)pyrazolo[1,5-a]pyrimidine-3-carbonitrile]	< 8.00
CN(c1ccc(Nc2cc(NC3CC3)n3ncc(C#N)c3n2)cc1C[S+](C)[O-])C1CC1 (racemic) [Example 36, (±)-5-((4-(Cyclopropyl(methyl)amino)-3-((methylsulfinyl)methyl)phenyl)amino)-7-(cyclopropylamino)pyrazolo[1,5-a]pyrimidine-3-carbonitrile]	> 8.60
C[S+]([O-])Cc1cc(Nc2cc(NC3CC3)n3ncc(C#N)c3n2)ccc1C1(CN)CC1 (racemic) [Example 38, (±)-5-((4-(1-(Aminomethyl)cyclopropyl)-3-((methylsulfinyl)methyl)phenyl)amino)-7-(cyclopropylamino)pyrazolo[1,5-a]pyrimidine-3-carbonitrile]	8.00 to 8.60
C[S+]([O-])Cc1cc(Nc2cc(NC3CC3)n3ncc(C#N)c3n2)ccc1N1CC(N)C1 (racemic) [Example 40, (±)-5-((4-(3-Aminoazetidin-1-yl)-3-((methylsulfinyl)methyl)phenyl)amino)-7-(cyclopropylamino)pyrazolo[1,5-a]pyrimidine-3-carbonitrile]	> 8.60
C[S+]([O-])Cc1cc(Nc2cc(NC3CC3)n3ncc(C#N)c3n2)ccc1N1CC(CN)C1 (racemic) [Example 42, (±)-5-((4-(3-(Aminomethyl)azetidin-1-yl)-3-((methylsulfinyl)methyl)phenyl)amino)-7-(cyclopropylamino)pyrazolo[1,5-a]pyrimidine-3-carbonitrile]	> 8.60
CN(c1ccc(Nc2cc(NC3CC3)n3ncc(C#N)c3n2)cc1C[S+](C)[O-])C1CNC1 (racemic) [Example 44, (±)-5-((4-(Azetidin-3-yl(methyl)amino)-3-((methylsulfinyl)methyl)phenyl)amino)-7-(cyclopropylamino)pyrazolo[1,5-a]pyrimidine-3-carbonitrile]	8.00 to 8.60
